Data published in publication PMC5433438 (Bioorganic & Medicinal Chemistry, 2015).

Biological target: HKU4-CoV 3CL^pro (Bat coronavirus HKU4, UniProt P0C6W3)
Assay type: biochemical, Tylonycteris bat coronavirus HKU4

HKU4-CoV 3CL^pro, sequence (P0C6W3 3292-3597 limits assumed): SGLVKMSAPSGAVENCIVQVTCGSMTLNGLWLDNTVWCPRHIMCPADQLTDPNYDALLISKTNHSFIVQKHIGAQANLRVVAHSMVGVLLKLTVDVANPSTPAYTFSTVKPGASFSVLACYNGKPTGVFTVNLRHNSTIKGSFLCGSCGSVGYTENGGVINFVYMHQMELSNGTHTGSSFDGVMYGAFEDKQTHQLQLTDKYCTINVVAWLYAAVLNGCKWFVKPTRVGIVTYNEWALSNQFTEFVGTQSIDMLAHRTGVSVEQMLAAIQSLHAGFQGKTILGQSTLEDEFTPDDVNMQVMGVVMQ

O=C(Cn1nnc2ccccc21)NCc1ccsc1 [22A, 2-(1H-Benzo[d][1,2,3]triazol-1-yl)-N-(thiophen-3-ylmethyl)acetamide]
increase in IC50: greater than 200 fold

O=C(Cn1nnc2ccccc21)N(Cc1ccsc1)c1ccc(-c2ccncc2)cc1 [5A]
fold more active: 2 fold

CC(C)C(=O)Nc1ccc(N(Cc2ccsc2)C(=O)Cn2ccnn2)cc1 [19A]
decrease in inhibitory potency between the analogs: ten-fold

O=C(Nc1ccc(N(Cc2ccsc2)C(=O)Cn2nnc3ccccc32)cc1)c1ccccc1 [2A]
IC50 (μM): sub-micromolar

CC(=O)Nc1ccc(N(C(=O)Cn2nnc3ccccc32)C(C(=O)NC(C)(C)C)c2ccsc2)cc1 (stereo not shown) [3B]
increase in IC50: 5 fold

O=C(Nc1ccc(N(Cc2ccsc2)C(=O)Cn2nnc3ccccc32)cc1)c1cccs1 [1A]
IC50 (μM): sub-micromolar

O=C(Cn1nnc2ccccc21)N(Cc1ccsc1)c1ccc(NCc2ccccc2)cc1 [17A]
increase in IC50: 10 fold
